In ChEMBL document CHEMBL1201862, “PubChem BioAssay data set” (2004):
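In this assay, cells in 96-well plates receive the compound at five concentrations for 48 hours. Endpoints are linearly interpolated between the surrounding concentrations. GI50: concentration for 50% inhibition of growth.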 The source made the active and inactive calls. Rule as the data show it: active = GI50 up to about 1.1 µM and inactive = higher.

Columns and labels:
Experiment in all cases: growth of human tumour cells (NCI), 48 h
K562 = test system: K562
HL-60 = test system: HL-60
CAKI-1 = test system: CAKI-1
NCI-H23 = test system: NCI-H23
COLO 205 = test system: COLO 205
HOP-62 = test system: HOP-62
LOX IMVI = test system: LOX IMVI
U-251 = test system: U-251
RPMI-8226 = test system: RPMI-8226
SK-OV-3 = test system: SK-OV-3
HCT-15 = test system: HCT-15
SN12C = test system: SN12C
SNB-19 = test system: SNB-19
ACHN = test system: ACHN
MOLT-4 = test system: MOLT-4
SK-MEL-2 = test system: SK-MEL-2
786-0 = test system: 786-0
OVCAR-3 = test system: OVCAR-3
HOP-92 = test system: HOP-92

| Structure (SMILES) | GI50 (K562) | GI50 (HL-60) | GI50 (CAKI-1) | GI50 (NCI-H23) | GI50 (COLO 205) | GI50 (HOP-62) | GI50 (LOX IMVI) | GI50 (U-251) | GI50 (RPMI-8226) | GI50 (SK-OV-3) | GI50 (HCT-15) [µM] | GI50 (SN12C) | GI50 (SNB-19) | GI50 (ACHN) | GI50 (MOLT-4) | GI50 (SK-MEL-2) | GI50 (786-0) | GI50 (OVCAR-3) | GI50 (HOP-92) |
| --- | --- | --- | --- | --- | --- | --- | --- | --- | --- | --- | --- | --- | --- | --- | --- | --- | --- | --- | --- |
| CSc1nc2c(c(O)c(C)c(=O)n2C2OCC(OC(C)=O)C(OC(C)=O)C2OC(C)=O)c(=O)n1C (configuration not stated) | > 100 µM (inactive) | > 100 µM (inactive) | > 100 µM (inactive) | > 100 µM (inactive) | > 100 µM (inactive) | > 100 µM (inactive) | > 100 µM (inactive) | > 100 µM (inactive) | > 100 µM (inactive) | > 100 µM (inactive) | > 100 | > 100 µM (inactive) | > 100 µM (inactive) | > 100 µM (inactive) | > 100 µM (inactive) | > 100 µM (inactive) | > 100 µM (inactive) | > 100 µM (inactive) | > 100 µM (inactive) |
| O=C(CC1C(=O)Nc2ccccc2[S+]1[O-])Nc1cccc(Cl)c1 (configuration not stated) | 6.61 µM (inactive) | > 33.5 µM (inactive) | 20.7 µM (inactive) | > 44.9 µM (inactive) | > 41 µM (inactive) | 25.5 µM (inactive) | > 100 µM (inactive) | 33.7 µM (inactive) | 7.98 µM (inactive) | 31.3 µM (inactive) | 27.1 | > 51.9 µM (inactive) | 30.5 µM (inactive) | 33.7 µM (inactive) | > 37.7 µM (inactive) | 55.5 µM (inactive) | 37.2 µM (inactive) | 32.7 µM (inactive) | 19.5 µM (inactive) |
| CCOc1ccc(NCC2CC/C(=C\c3ccc(Cl)cc3)C2=O)cc1 (configuration not stated) | 6.81 µM (inactive) | 1.74 µM (inactive) | > 45.1 µM (inactive) | > 48.9 µM (inactive) | > 37.9 µM (inactive) | > 100 µM (inactive) | 19.4 µM (inactive) | 25.8 µM (inactive) | 2.54 µM (inactive) | > 100 µM (inactive) | 7.73 | > 42.8 µM (inactive) | 49.1 µM (inactive) | > 40.6 µM (inactive) | 16.8 µM (inactive) | 22.4 µM (inactive) | 13 µM (inactive) | > 36.9 µM (inactive) | 20.3 µM (inactive) |
| CN/C(=N\C#N)N(Cc1ccccc1)Cc1ccccc1 | – | > 100 µM (inactive) | > 100 µM (inactive) | > 100 µM (inactive) | > 100 µM (inactive) | > 100 µM (inactive) | > 100 µM (inactive) | > 100 µM (inactive) | > 100 µM (inactive) | > 100 µM (inactive) | > 100 | > 100 µM (inactive) | > 100 µM (inactive) | > 100 µM (inactive) | > 100 µM (inactive) | > 100 µM (inactive) | > 100 µM (inactive) | > 100 µM (inactive) | > 100 µM (inactive) |
| C/C(CN1C(=O)c2ccccc2C1=O)=N\NS(=O)(=O)c1ccccc1 | > 100 µM (inactive) | > 100 µM (inactive) | > 100 µM (inactive) | > 100 µM (inactive) | > 100 µM (inactive) | > 100 µM (inactive) | > 100 µM (inactive) | > 100 µM (inactive) | > 100 µM (inactive) | > 100 µM (inactive) | > 100 | > 100 µM (inactive) | > 100 µM (inactive) | > 100 µM (inactive) | > 100 µM (inactive) | > 100 µM (inactive) | > 100 µM (inactive) | > 100 µM (inactive) | > 100 µM (inactive) |
| O=C1CCC2(c3ccc(F)cc3)Nc3ccccc3N12 (configuration not stated) | > 100 µM (inactive) | > 100 µM (inactive) | > 100 µM (inactive) | > 100 µM (inactive) | > 100 µM (inactive) | > 100 µM (inactive) | > 100 µM (inactive) | > 100 µM (inactive) | > 100 µM (inactive) | > 100 µM (inactive) | > 100 | > 100 µM (inactive) | – | > 100 µM (inactive) | > 100 µM (inactive) | > 100 µM (inactive) | > 100 µM (inactive) | > 100 µM (inactive) | > 100 µM (inactive) |
